Test results taken from patent US20060058322A1, “Method of wound healing using A2B adenosine receptor antagonists” (priority 2004, published 2006).
Marks after values point to notes of the source that are not given here.

Experiments:
[1] = tested on: ICR derived male mice; experiment: Wound healing in mouse model (full-thickness punch wound, topical treatment); format: in vivo; details: mean, n=5; for CT50 (wound half-closure time): linear regression
Experimental: Groups of ICR derived male mice (weighing 24±2 g) of 5 each were used. During testing period, the animals were single-housed in each cage. Under hexobarbital (90 mg/kg, IP) anesthesia, the shoulder and back region of each animal was shaved. A sharp punch (ID 12 mm) was applied to remove the skin including panniculus carnosus and adherent tissues. […] Test substances were administered topically immediately following wound injury once daily for a total of 10 consecutive days. The closure of the wound (%) and wound half-closure time (CT50) were determined by linear regression using Graph-Pad Prism™ (Graph Pad Software USA) and unpaired Student's t test was applied for comparison between treated and vehicle groups at each measurement time point on days 3, 5, 7, 9 and 11. Differences are considered of statistical significance at P<0.05 level.
Table 1 presents test data obtained for the compound 3-ethyl-1-propyl-8-(1-{[3-(trifluoromethyl)phenyl]methyl}pyrazol-4-yl)-1,3,7-trihydropurine-2,6-dione using the mouse model discussed above. Table 2 presents test date obtained using 1,3-dipropyl-8-(1-{[6-(trifluoromethyl)(3-pyridyl)]methyl}pyrazol-4-yl)- 1,3,7-trihydropurine-2,6-dione. In each case, the vehicle used for comparison was 1.5% carboxymethylcellulose in phosphate buffered saline at pH 7.4

[2] = tested on: Yorkshire pig; experiment: Wound healing in pig model (full thickness excisions, total granulation tissue); format: in vivo
Experimental: Pig skin heals most like human skin and therefore testing on this animal provides an optimal paradigm to study cutaneous repair mechanisms. In this Example, the effect of an A2B antagonist on wound healing was tested in three pigs. PDGF (REGRANEX® (becaplermin) Gel 0.01%, Ortho-McNeil Pharmaceutical, Inc., Raritan, N.J.) was used as a positive control. The vehicle for drug delivery was 1.5% methylcellulose gel (KY gel). Control wounds received the vehicle alone. 3 different dosages of the A2B antagonist 3-ethyl-1-propyl-8-(1-{[3-(trifluoromethyl)phenyl]methyl}pyrazol-4-yl)-1,3,7-trihydropurine-2,6-dione, 1 μg/40 μl, 4 μg/40 μl, and 20 μg/40 μl were tested.
Method: Three Yorkshire pig ([…].) were used. On the day of surgery, a series of full thickness excisions were created alongside the paravertebral region on one side of the pig. Pigs were sacrificed at the end of 10 days and all wounds were removed for histological and immunohistochemical examinations.

CCCn1c(=O)c2[nH]c(-c3cnn(Cc4cccc(C(F)(F)F)c4)c3)nc2n(CC)c1=O [3-ethyl-1-propyl-8-(1-{[3-(trifluoromethyl)phenyl]methyl}pyrazol-4-yl)-1,3,7-trihydropurine-2,6-dione]
Percent wound closure ([1]; 0.5 μg/mouse topical once daily, Day 1): 0%
Percent wound closure ([1]; 0.5 μg/mouse topical once daily, Day 2): 43.2* %
Percent wound closure ([1]; 0.5 μg/mouse topical once daily, Day 3): 51.2* %
Percent wound closure ([1]; 0.5 μg/mouse topical once daily, Day 4): 56.0* %
Percent wound closure ([1]; 0.5 μg/mouse topical once daily, Day 5): 58.8* %
Percent wound closure ([1]; 0.5 μg/mouse topical once daily, Day 6): 64.3* %
Percent wound closure ([1]; 0.5 μg/mouse topical once daily, Day 7): 72.5* %
Percent wound closure ([1]; 0.5 μg/mouse topical once daily, Day 8): 78.2* %
Percent wound closure ([1]; 0.5 μg/mouse topical once daily, Day 9): 82.5* %
Percent wound closure ([1]; 0.5 μg/mouse topical once daily, Day 10): 83.1* %
Percent wound closure ([1]; 0.5 μg/mouse topical once daily, Day 11): 87.1* %
CT50 (wound half-closure time) ([1]; 0.5 μg/mouse topical once daily): 4.3* DAYS
Percent wound closure ([1]; 2 μg/mouse topical once daily, Day 1): 0%
Percent wound closure ([1]; 2 μg/mouse topical once daily, Day 2): 35.6* %
Percent wound closure ([1]; 2 μg/mouse topical once daily, Day 3): 46.5* %
Percent wound closure ([1]; 2 μg/mouse topical once daily, Day 4): 57.4* %
Percent wound closure ([1]; 2 μg/mouse topical once daily, Day 5): 62.4%
Percent wound closure ([1]; 2 μg/mouse topical once daily, Day 6): 68.3* %
Percent wound closure ([1]; 2 μg/mouse topical once daily, Day 7): 73.3* %
Percent wound closure ([1]; 2 μg/mouse topical once daily, Day 8): 78.8* %
Percent wound closure ([1]; 2 μg/mouse topical once daily, Day 9): 82.2* %
Percent wound closure ([1]; 2 μg/mouse topical once daily, Day 10): 89.2* %
Percent wound closure ([1]; 2 μg/mouse topical once daily, Day 11): 91.6* %
CT50 (wound half-closure time) ([1]; 2 μg/mouse topical once daily): 4.4* DAYS
Total granulation tissue, lowest dose versus highest dose ([2]; 1 μg/40 μl versus 20 μg/40 μl topical, p=0.047): statistical difference
Total granulation tissue, highest dose versus placebo formulation ([2]; 20 μg/40 μl topical, p=0.035): statistical difference
Effect on total granulation tissue ([2]; topical 1, 4 and 20 μg/40 μl in 1.5% methylcellulose gel, 10 days, FIG. 1): stimulated the total granulation tissue in a dose-dependent fashion

PDGF
Total granulation tissue, positive control versus placebo formulation ([2]; REGRANEX (becaplermin) Gel 0.01%, p=0.034): statistical difference

CCCn1c(=O)c2[nH]c(-c3cnn(Cc4ccc(C(F)(F)F)nc4)c3)nc2n(CCC)c1=O [1,3-dipropyl-8-(1-{[6-(trifluoromethyl)(3-pyridyl)]methyl}pyrazol-4-yl)-1,3,7-trihydropurine-2,6-dione]
Percent wound closure ([1]; Table 2, 0.5 μg/mouse topical once daily, Day 3): 41.9* %
Percent wound closure ([1]; Table 2, 0.5 μg/mouse topical once daily, Day 5): 53.5* %
Percent wound closure ([1]; Table 2, 0.5 μg/mouse topical once daily, Day 7): 65.8* %
Percent wound closure ([1]; Table 2, 0.5 μg/mouse topical once daily, Day 9): 77.1* %
Percent wound closure ([1]; Table 2, 0.5 μg/mouse topical once daily, Day 11): 85.3* %
CT50 (wound half-closure time) ([1]; Table 2, 0.5 μg/mouse topical once daily): 5.5* DAYS
